{
  "source": "patent US20240410831A1",
  "about": "“Multi-Mode Zinc-Selective Emission-Ratiometric Fluorescent Probes for Biological Application” (Georgia Tech Research Corporation, priority 2023, published 2024)",
  "key": {"[1]": {"experiment": "Fluorometric competition titration with EGTA, Zn(II) complex stability constant", "format": "binding", "method": "FIG. 6A illustrates the fluorometric determination of the Zn(II) complex stability constant of probe 8 via competition titration with EGTA. (A) of FIG. 6A illustrates an exemplary Formula I, Formula II, and/or a derivative thereof (e.g., for example probe 8) (10 μM) that was equilibrated with molar equivalent of Zn(OTf)2 in chelexed PIPES buffer (pH 7.0, 10 mM PIPES, 0.1 M KCl, 25° C.) containing 100 μM 4:1 DMPC:DMPG liposomes and titrated with EGTA to a final concentration of 50 μM. The fluorescence spectra (excitation at 405 nm) were analyzed by non-linear least squares fitting. (B) FIG. 6A illustrates an exemplary change in fluorescence response at 515 nm with the corresponding fit using the equilibrium system model as defined in the table of FIG. 6B.\nThe binding affinity of Formula I, Formula II, and/or a derivative thereof (e.g., for example probe 8) was analyzed in PIPES buffer containing 100 μM of 4:1 DMPC:DMPG liposomes (pH 7.0, 10 mM PIPES, 0.1 M KCl, 25° C.). […] The binding affinity is over 400-fold weaker than chromis-1 acid, and approximately 10-fold lower than chromis-1 ester. The discrepancy in binding affinities is likely due to a combination of two factors. […]\nA solution of Formula I, Formula II, and/or a derivative thereof (e.g., for example probe 8) was diluted from a 3.0 mM DMSO stock solution to a final concentration of 10 μM in Chelex®-treated PIPES buffer (10 mM, 0.1 M KCl, pH 7.0) containing 10 μM of Zn(OTf)2 and 100 μM of liposomes (4:1 mixture of DMPC and DMPG). […] After the addition of each aliquot of EGTA, the solution was allowed to equilibrate for 1 minute, and a fluorescence spectrum (excitation at 405 nm, spectral window 415-665 nm) was acquired. The titration was conducted in triplicate, and the data were analyzed by nonlinear least-squares fitting over the entire spectral range using the SPECFIT software package."}, "[2]": {"system": "live mouse fibroblast 3T3 cells", "experiment": "Ratiometric imaging of labile Zn(II) by laser confocal fluorescence microscopy (excitation at 405 nm)", "format": "cell-based", "details": "for average fluorescence ratio R (BP2/BP1): confocal 405 nm", "method": "With reference to FIG. 7B, ratiometric imaging of labile Zn(II) pools in live mouse fibroblast 3T3 cells with Formula I and/or Formula IA (e.g., for example probe 8) by TPEM (excitation at 405 nm). (A) of FIG. 7B Left: Intensities acquired with 520 nm-600 nm (BP2) and 440 nm-495 nm (BP1) bandpass filters respectively. Right: Intensity ratio imagines with R=BP2/BP1. (B) of FIG. 7B Left: Ratio images (BP2/BP1) before (prior to t=5 min) and after the addition of 50 μM ZnSO4 and 5.0 μM pyrithione. Addition of TPEN at t=15 min resulted the reversal of the initial fluorescence ratio change. (C) of FIG. 7B: Mean fluorescence ratio of the cytoplasmic region averaged over 10 cells (P values calculated for n=10 using a two-tailed test). (D) of FIG. 7B: Time course of the average ratio change for mean fluorescence ratio in the cytosol averaged over 10 cells.\nTo investigate whether Formula I, Formula II, and/or a derivative thereof (e.g., for example probe 8) may also be employed with one-photon excitation at 405 nm, the imagine experiment was repeated with a conventional confocal fluorescence microscope equipped with a 405 nm laser as the excitation source. […] The averaged fluorescence ratio indicated a uniform fractional saturation with an average ratio of R=0.57±0.04. […] The difference in fluorescence ratios is likely due to differences in the absorption cross sections for linear vs. non-linear excitation. In principle, the ratio response could be further tuned by adjusting the sensitivity of the bandpass detectors.\nIn various embodiments, mouse fibroblast (3T3) cells were grown on poly-L-lysine treated glass bottom culture dishes (MatTek) to 90% confluency in DMEM growth media supplemented with 10% bovine calf serum, and 1% penicillin-streptomycin. Before imaging, the media was replaced with pre-warmed colorless serum-free DMEM (1% penicillin-streptomycin, and 1% sodium pyruvate) containing 1.0 μM of probe 8. The cells were incubated at 37° C. under an atmosphere of humidified air containing 5% CO2 for 15 mins. The incubation solution was replaced with prewarmed colorless serum free DMEM. Images were acquired at 37° C., 8% humidity, and 5% CO2 using a Zeiss LSM NLO 710 microscope equipped with a femtosecond pulsed Ti:sapphire laser and a blue 405 nm laser. Scanning fluorescence micrographs were acquired with excitation at 405 nm or 750 nm and the emission was simultaneously collected with bandpass ranges of 495-440 nm (BP1) and 600-520 nm (BP2). Image J was used to evaluate the change in fluorescence emission ratio over time as previously described. The emission ratio for each region of interest was averaged at each time point.\nTPEN solid was fully dissolved in anhydrous DMSO to a concentration of 3.0 mM. […]"}},
  "data": [
    {"smiles": "COc1ccc2c(c1)C(C)(C)c1nc(-c3cccc(CN(Cc4ncccn4)Cc4ncccn4)n3)sc1-2", "note": "[probe 8]", "values": [
      {"measurement": "binding affinity weaker than chromis-1 acid", "setting": "[1]; Zn(II) affinity compared with chromis-1 acid", "value": "over 400 fold"},
      {"measurement": "binding affinity lower than chromis-1 ester", "setting": "[1]; Zn(II) affinity compared with chromis-1 ester", "value": "approximately 10 fold"},
      {"measurement": "Kd", "setting": "[1]; pH 7.0, ionic background 0.1 M KCl, 25° C., liposomes, read-out: apparent dissociation constant Kd for Zn(II)", "value": 18.5, "unit": "nM"},
      {"measurement": "cellular uptake", "setting": "[2]; 3T3 cells, confocal", "value": "readily internalized"},
      {"measurement": "average fluorescence ratio R (BP2/BP1)", "setting": "[2]; after TPEN", "value": "0.56±0.04"},
      {"measurement": "average fluorescence ratio R (BP2/BP1)", "setting": "[2]; after Zn(II) and ionophore pyrithione", "value": "1.04±0.12"},
      {"measurement": "average fluorescence ratio R (BP2/BP1)", "setting": "[2]; basal", "value": "0.57±0.04"}
    ]}
  ]
}
